Test results reported in patent US11905284B2, “5,7-dihydro-pyrrolo-pyridine derivatives” (PFIZER INC., priority 2016, dated 2024).

Molecular target: T1, Human M4 receptors (Homo sapiens, UniProt P08173)
T1 construct: expressed in transfected cells; host or cells: HEK293 cells with Promega GloSensor cAMP technology, stably expressing hM4
T1 sequence (P08173 1-479): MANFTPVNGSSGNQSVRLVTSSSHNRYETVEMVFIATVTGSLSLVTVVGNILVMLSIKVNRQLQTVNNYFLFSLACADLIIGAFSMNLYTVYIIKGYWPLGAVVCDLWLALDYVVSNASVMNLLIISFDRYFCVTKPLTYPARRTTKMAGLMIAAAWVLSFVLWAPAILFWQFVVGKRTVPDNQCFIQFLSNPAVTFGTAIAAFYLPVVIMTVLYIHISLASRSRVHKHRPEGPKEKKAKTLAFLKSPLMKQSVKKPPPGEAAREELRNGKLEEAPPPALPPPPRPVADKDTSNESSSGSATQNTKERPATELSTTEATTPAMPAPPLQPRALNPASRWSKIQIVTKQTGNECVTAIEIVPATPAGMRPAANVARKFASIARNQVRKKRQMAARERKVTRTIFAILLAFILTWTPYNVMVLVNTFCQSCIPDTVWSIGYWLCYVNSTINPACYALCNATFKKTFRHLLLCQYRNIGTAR
Test: M4 PAM cAMP assay (GloSensor)
Type: cell-based
Settings: for Emax: HEK293, read-out: M4 glosensor EC50 Mean Asymptote Maximum (%); for EC50 / M4 glosensor EC50 Mean Asymptote Maximum (%): HEK293 GloSensor cells expressing hM4, with EC20 acetylcholine and isoproterenol, geometric mean of 2-4 determinations unless otherwise indicated; for M4 glosensor EC50 Mean Asymptote Maximum (%): Emax = maximum asymptote of fitted dose response curve
Protocol: The M4 PAM binding affinity for the compounds of the present invention was determined utilizing the following biological assay(s):
The M4 cAMP assay was designed to determine the potency and efficacy of muscarinic positive allosteric modulators (PAMs). Human M4 receptors were stably expressed in Human embryonic kidney (HEK293) cells expressed with the Promega GloSensor™ cAMP technology.
HEK293 GloSensor cells expressing hM4 cells were cultured in growth media containing DMEM with 10% FBS, 1% Penicillin/Streptomycin, 500 μg/mL G418, 200 μg/mL Hygomycin B, and 1% Glutamax. […] Plates were incubated at 37 degrees C. and 5% CO2 for use after 24 hours.
Compound Preparation for Agonist Screen:
Each compound was tested at 10 concentrations in duplicate per experiment. Compound plates are spotted with 0.2 μL/well agonist at 400 times the final assay concentration. Positive and negative controls for the compound alone agonist response was 10 μM acetylcholine (Sigma #A2661) and DMSO, respectively. EC20 of acetylcholine was also used to define PAM activities.
Promega GloSensor™ reagent (Promega #E1291) had previously been aliquotted. […] Stock solution was mixed. Culture media in cell plates was discarded, then replaced with 40 μL/well pre-warmed equilibration media, then incubated in the dark at room temperature for 2 hours. During the incubation, stimulation media containing agonist and EC20 acetylcholine was prepared. […] Compounds are now 5 times the final assay concentration. The plate was mixed using a plate agitator. At the end of the 2 hour GloSensor™ incubation, add 10 μL of the CO2-independent media containing agonist, EC20 acetylcholine and isoproterenol to the cell plate. Cell plate was then incubated for 10 minutes at room temperature, and then read using an EnVision plate reader (Perkin Elmer).
Data was exported from the EnVision plate reader. The percent effect for each well was determined using the mean values for the positive and negative controls on each plate for each read, specifically 100*(compound−negative control)/(positive control−negative control). Dose response curves were fitted to the compound percent effect data using a 4-parameter logistic fit model. Data was reported as EC50 and Emax, with the Emax as the maximum asymptote of the fitted dose response curve.

Emax [%]	EC50 [nM]	M4 glosensor EC50 Mean Asymptote Maximum (%)	Compound
89.2	105	–	CNC(=O)c1ccc(N2CC(CC(=O)N3Cc4nc(C)cc(C)c4C3)C2)cc1 [Example 75, 4-{3-[2-(2,4-dimethyl-5,7-dihydro-6H-pyrrolo[3,4-b]pyridin-6-yl)-2-oxoethyl]azetidin-1-yl}-N-methylbenzamide]
95.3	90.5	–	Cc1cc(C)c2c(n1)CN(C(=O)CC1CN(c3ccc(C(O)C4CC4)cc3)C1)C2 (stereo not drawn) [Example 73, 2-(1-{4-[cyclopropyl(hydroxy)methyl]phenyl}azetidin-3-yl)-1-(2,4-dimethyl-5,7-dihydro-6H-pyrrolo[3,4-b]pyridin-6-yl)ethanone]
99.4	485	–	Cc1cc(C)c2c(n1)CN(C(=O)CC1CN(c3ccc(C4(C)COC4)cc3)C1)C2 [Example 68, 1-(2,4-dimethyl-5,7-dihydro-6H-pyrrolo[3,4-b]pyridin-6-yl)-2-{1-[4-(3-methyloxetan-3-yl)phenyl]azetidin-3-yl}ethanone]
86	18	–	Cc1cc(C(F)F)nc2c1CN(C(=O)CC1CN(c3cncnc3)C1)C2 [Example 34, 1-[2-(difluoromethyl)-4-methyl-5,7-dihydro-6H-pyrrolo[3,4-b]pyridin-6-yl]-2-[1-(pyrimidin-5-yl)azetidin-3-yl]ethanone]
95.6	7.35	–	CCNc1nccc(N2CC(CC(=O)N3Cc4nc(C)cc(C)c4C3)C2)n1 [Example 41, 1-(2,4-dimethyl-5,7-dihydro-6H-pyrrolo[3,4-b]pyridin-6-yl)-2-{1-[2-(ethylamino)pyrimidin-4-yl]azetidin-3-yl}ethanone]
88.6	25.2	–	Cc1cc(C)c2c(n1)CN(C(=O)CC1CN(c3ccc4nc(C)cn4n3)C1)C2 [Example 43, 1-(2,4-dimethyl-5,7-dihydro-6H-pyrrolo[3,4-b]pyridin-6-yl)-2-[1-(2-methylimidazo[1,2-b]pyridazin-6-yl)azetidin-3-yl]ethanone]
86.5	17.2	–	Cc1cc(CO)nc2c1CN(C(=O)CC1CN(c3cccnc3)C1)C2 [Example 9, 1-[2-(Hydroxymethyl)-4-methyl-5,7-dihydro-6H-pyrrolo[3,4-b]pyridin-6-yl]-2-[1-(pyridin-3-yl)azetidin-3-yl]ethanone]
90.5	195	–	Cc1cc(C)c2c(n1)CN(C(=O)CC1CN(c3ccc(CO)cc3)C1)C2 [Example 71, 1-(2,4-dimethyl-5,7-dihydro-6H-pyrrolo[3,4-b]pyridin-6-yl)-2-{1-[4-(hydroxymethyl)phenyl]azetidin-3-yl}ethanone]
86.6	23.9	–	COc1cc(C)c2c(n1)CN(C(=O)CC1CN(c3cccnc3)C1)C2 [Example 21, 1-(2-methoxy-4-methyl-5,7-dihydro-6H-pyrrolo[3,4-b]pyridin-6-yl)-2-[1-(pyridin-3-yl)azetidin-3-yl]ethanone]

Continued, compound first:

Compound	Emax [%]	EC50 [nM]	M4 glosensor EC50 Mean Asymptote Maximum (%)
Cc1ccc([C@H]2C[C@@H]2CC(=O)N2Cc3nc(C(F)F)cc(C)c3C2)cn1 [Example 18, 1-[2-(difluoromethyl)-4-methyl-5,7-dihydro-6H-pyrrolo[3,4-b]pyridin-6-yl]-2-[(1R,2S)-2-(6-methylpyridin-3-yl)cyclopropyl]ethanone]	89	37.7	–
COc1nc2c(c(C)c1Cl)CN(C(=O)CC1CN(c3cccnc3)C1)C2 [Example 22, 1-(3-chloro-2-methoxy-4-methyl-5,7-dihydro-6H-pyrrolo[3,4-b]pyridin-6-yl)-2-[1-(pyridin-3-yl)azetidin-3-yl]ethanone]	109	4.82	–
Cc1c(C(F)F)nc2c(c1C)CN(C(=O)OC1CN(c3ncns3)C1)C2 [Example 63, 1-(1,2,4-thiadiazol-5-yl)azetidin-3-yl 2-(difluoromethyl)-3,4-dimethyl-5,7-dihydro-6H-pyrrolo[3,4-b]pyridine-6-carboxylate]	51.8	42.4	–
Cc1c(Cl)c(OC(F)F)nc2c1CN(C(=O)CC1CN(c3cncnc3)C1)C2 [Example 32, 1-[3-chloro-2-(difluoromethoxy)-4-methyl-5,7-dihydro-6H-pyrrolo[3,4-b]pyridin-6-yl]-2-[1-(pyrimidin-5-yl)azetidin-3-yl]ethanone]	109	11	–
Cc1nc2c(c(C)c1Cl)CN(C(=O)C[C@@H]1C[C@H]1c1cncnc1)C2 (single isomer, unassigned) [Example 51, 1-(3-chloro-2,4-dimethyl-5,7-dihydro-6H-pyrrolo[3,4-b]pyridin-6-yl)-2-[trans-2-(pyrimidin-5-yl)cyclopropyl]ethanone]	102	4.75	–
Cc1nc2c(c(C)c1C)CN(C(=O)OC1CN(c3nncs3)C1)C2 [Example 65, 1-(1,3,4-thiadiazol-2-yl)azetidin-3-yl 2,3,4-trimethyl-5,7-dihydro-6H-pyrrolo[3,4-b]pyridine-6-carboxylate]	88.2	62.6	–
Cc1nc2c(c(C)c1Cl)CN(C(=O)CC1CN(c3ccnc(C(F)F)c3)C1)C2 [Example 12, 1-(3-Chloro-2,4-dimethyl-5,7-dihydro-6H-pyrrolo[3,4-b]pyridin-6-yl)-2-{1-[2-(difluoromethyl)pyridin-4-yl]azetidin-3-yl}ethanone]	119	7.1	–
Cc1cc(CO)nc2c1CN(C(=O)CC1CN(c3ccncn3)C1)C2 [Example 24, 1-[2-(hydroxymethyl)-4-methyl-5,7-dihydro-6H-pyrrolo[3,4-b]pyridin-6-yl]-2-[1-(pyrimidin-4-yl)azetidin-3-yl]ethanone]	93.8	31	–
Cc1cc(C)c2c(n1)CN(C(=O)CC1CN(c3cccnc3)C1)C2C (single isomer, unassigned) [Example 14, 2-[1-(Pyridin-3-yl)azetidin-3-yl]-1-(2,4,5-trimethyl-5,7-dihydro-6H-pyrrolo[3,4-b]pyridin-6-yl)ethanone]	–	9080	62.5
Cc1cc(C)c2c(n1)CN(C(=O)CC1CN(c3cccnc3)C1)C2C (single isomer, unassigned) [Example 15, 2-[1-(Pyridin-3-yl)azetidin-3-yl]-1-(2,4,5-trimethyl-5,7-dihydro-6H-pyrrolo[3,4-b]pyridin-6-yl)ethanone]	–	28	106
Cc1nc2c(c(C)c1Cl)CN(C(=O)CC1CN(c3ccncn3)C1)C2 [Example 39, 1-(3-chloro-2,4-dimethyl-5,7-dihydro-6H-pyrrolo[3,4-b]pyridin-6-yl)-2-[1-(pyrimidin-4-yl)azetidin-3-yl]ethanone]	96.4	< 1.39	–
COCc1nc2c(c(C)c1Cl)CN(C(=O)CC1CN(c3cccnc3)C1)C2 [Example 48, 1-[3-chloro-2-(methoxymethyl)-4-methyl-5,7-dihydro-6H-pyrrolo[3,4-b]pyridin-6-yl]-2-[1-(pyridin-3-yl)azetidin-3-yl]ethanone]	105	2.99	–
Cc1c(C(F)F)nc2c(c1C)CN(C(=O)CC1CN(c3ccnc(OC(F)F)c3)C1)C2 [Example 10, 2-{1-[2-(Difluoromethoxy)pyridin-4-yl]azetidin-3-yl}-1-[2-(difluoromethyl)-3,4-dimethyl-5,7-dihydro-6H-pyrrolo[3,4-b]pyridin-6-yl]ethanone]	99.5	28.9	–
Cc1nc2c(c(C)c1C)CN(C(=O)OC1CN(c3cccnc3)C1)C2 [Example 36, 1-(pyridin-3-yl)azetidin-3-yl 2,3,4-trimethyl-5,7-dihydro-6H-pyrrolo[3,4-b]pyridine-6-carboxylate]	93	10.4	–
COc1nc2c(c(C)c1C)CN(C(=O)CC1CN(c3cncnc3)C1)C2 [Example 29, 1-(2-methoxy-3,4-dimethyl-5,7-dihydro-6H-pyrrolo[3,4-b]pyridin-6-yl)-2-[1-(pyrimidin-5-yl)azetidin-3-yl]ethanone]	99.8	26.1	–
